The values that follow come from patent US5519021A, “Benzoxazinones as inhibitors of HIV reverse transcriptase” (priority 1995, dated 1996).

Data set [1] has as its system HIV-1 (wild-type). As to the kind of experiment: Cell spread assay (MT-4 T-lymphoid cells). The format is cell-based. The settings on record: Human immunodeficiency virus 1, MT4, 72 h. The method, then: (§1) Inhibition of the spread of HIV in cell culture was measured according to Nunberg, J. H. et al., J. Virol. 65, 4887 (1991 ). In this assay, MT-4 T-lymphoid cells were infected with HIV-1 (wild-type, unless otherwise indicated) by using a predetermined inoculum, and cultures were incubated for 24 h. At this time, ≤1% of the cells were positive by indirect immunofluorescence. Cells were then extensively washed and distributed into 96-well culture dishes. Serial twofold dilutions of inhibitor were added to the wells, and cultures were continued for 3 additional days. At 4 days postinfection, 100% of the cells in control cultures were infected. HIV-1 p24 accumulation was directly correlated with virus spread. The cell culture inhibitory concentration was defined as the inhibitor concentration in nanomoles/liter which reduced the spread of infection by at least 95%, or CIC95.

The target of data set [2] is T1, A17 RT (Human immunodeficiency virus type 1 group M subtype B, UniProt P04585, K690N/Y768C).
T1 construct: A17 RT was employed in the assay; made in house; host or cells: bacteria
As to the kind of experiment: biochemical. Further details: species or system HIV-1. The method, then: (§2) The assay measures the incorporation of tritiated deoxyguanosine monophosphate by recombinant HIV reverse transcriptase (HIV RTR) (or other RT) into acid-precipitable cDNA at the Km values of dGTP and poly r(C).cndot.oligo d(G)12-18.
(§3) The assays were carried out in 55 mM Tris (pH 8.2)-30 mM KCl-30 mM MgCl2 -1 mM dithiothreitol-20 μg of rC:dG 12-18 (Pharmacia) per ml-8 mM [^3 H]dGTP (New England Nuclear)-0.01% Triton X-100-50 mM ethylene glycol-bis(β-amino-ethyl ether)-N,N,N',N'-tetraacetic acid (EGTA)-1 mg of bovine serum albumin per ml. After 60 min of incubation at 37° C., acid-precipitable material was collected onto glass fiber filters by using a semiautomatic cell harvester. Bacterial cell extracts containing RT were diluted to within the linear range of the assay, and activity was determined in the presence and absence of inhibitor. Purified HIV-1 RT heterodimer produced in E. coli also served as a control.
For the double mutant assay (dm), A17 RT was employed in the assay. […] Results are measured as IC50 dm in nanomoles/liter.

For data set [3], the target named is T2, recombinant HIV reverse transcriptase (HIV RTR) (Human immunodeficiency virus type 1 group M subtype B, UniProt P04585).
T2 construct: recombinant HIV reverse transcriptase (HIV RTR); made in house; host or cells: E. coli
The data set is described as follows: Reverse transcriptase assay (wild type). The format is biochemical, HIV-1. The procedure: as §2, §3

The target in data set [4] is T3, reverse transcriptase of HIV2 (Human immunodeficiency virus type 2 subtype A, UniProt P04584).
T3 construct: is the reverse transcriptase of HIV2
The data set is described as follows: Reverse transcriptase assay, RT-2. The format is biochemical. The procedure:
as §2
as §3, with “control. Results are determined as inhibitor concentration to give 50% inhibition (IC50 wt), in nanomoles/liter.” for “control.”
is the reverse transcriptase of HIV2.

Data set [5] can be described thus: Protein binding (HPLC method). The format is in vitro ADME. To be noted: Normal Human Plasma (HPLC Method). An excerpt:
Protein Binding: 98.0% Normal Human Plasma (HPLC Method)

The subject of data set [6] is HIV-1 Y181C. As to the kind of experiment: Cell spread assay, Y181C mutant. In kind it is cell-based. To be noted: MT-4 cells. The method, then:
as §1
(§4) *Mutants K103N and Y181C are drugresistant HIV1 reverse transcriptases. D

Data set [7] concerns HIV-1 K103N. As to the kind of experiment: Cell spread assay, K103N mutant. In kind it is cell-based. The settings on record: MT-4 cells. The procedure:
as §1, §4

For data set [8], the system named is HIV-1 DM (double mutant). The data set is described as follows: Cell spread assay, double mutant (DM). In kind it is cell-based. The settings on record: MT-4 cells. The procedure:
as §1, §4
is the double mutant, as discussed in the reverse transcriptase assay. RT

[9] abbreviates: Table I, concentration reducing spread of infection by at least 95%, MT-4 cells, read-out: CIC*95.
Where [10] appears, read: Table I, wild-type RT, read-out: IC*50 wt.
[11] abbreviates: Table II, wild-type RT, read-out: IC*50 wt.

Read-outs that look alike come from different tables or passages of the source.

T3 sequence (P04584 613-1171): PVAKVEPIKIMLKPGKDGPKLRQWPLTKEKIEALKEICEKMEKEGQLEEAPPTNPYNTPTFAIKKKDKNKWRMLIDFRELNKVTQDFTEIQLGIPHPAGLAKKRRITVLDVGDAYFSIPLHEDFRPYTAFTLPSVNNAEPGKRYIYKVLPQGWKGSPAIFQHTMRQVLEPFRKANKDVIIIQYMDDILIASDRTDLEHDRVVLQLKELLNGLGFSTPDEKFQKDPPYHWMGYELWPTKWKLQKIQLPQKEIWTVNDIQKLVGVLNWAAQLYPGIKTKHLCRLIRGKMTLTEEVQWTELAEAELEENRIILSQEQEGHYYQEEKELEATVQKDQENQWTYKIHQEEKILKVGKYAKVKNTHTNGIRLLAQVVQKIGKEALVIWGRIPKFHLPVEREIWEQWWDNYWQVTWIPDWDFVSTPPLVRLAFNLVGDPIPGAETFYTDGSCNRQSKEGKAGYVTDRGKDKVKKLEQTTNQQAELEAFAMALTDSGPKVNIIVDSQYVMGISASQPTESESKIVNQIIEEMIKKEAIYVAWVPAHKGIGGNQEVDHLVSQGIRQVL
T3 sequence (P04584 613-1051): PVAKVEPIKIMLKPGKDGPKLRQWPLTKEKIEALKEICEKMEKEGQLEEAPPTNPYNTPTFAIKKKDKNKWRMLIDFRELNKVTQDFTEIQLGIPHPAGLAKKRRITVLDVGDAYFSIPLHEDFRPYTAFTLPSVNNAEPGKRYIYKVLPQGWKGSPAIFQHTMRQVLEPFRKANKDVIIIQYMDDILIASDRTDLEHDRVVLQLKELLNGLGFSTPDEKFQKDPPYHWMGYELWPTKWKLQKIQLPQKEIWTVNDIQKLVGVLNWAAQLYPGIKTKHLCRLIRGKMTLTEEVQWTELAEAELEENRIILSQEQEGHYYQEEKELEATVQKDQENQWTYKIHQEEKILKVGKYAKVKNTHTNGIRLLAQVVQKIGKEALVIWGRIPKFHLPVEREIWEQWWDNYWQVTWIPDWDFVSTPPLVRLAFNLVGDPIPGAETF

Regarding `O=C1Nc2ccc(Cl)cc2C(C#Cc2ccccc2)(C(F)(F)F)O1` (racemic) [12(+/-), (±) 6-Chloro-4-phenylethynyl-4-trifluoromethyl-1,4-dihydro-2H-3,1-benzoxazin-2-one], the IC95 in data set [1] (setting [9]) was determined as 0.025 µM. The IC50 in data set [2] was 280 nM; in data set [3] (setting [10]) it was 12 nM.

`N#Cc1ccccc1C#CC1(C(F)(F)F)OC(=O)Nc2ccc(Cl)cc21` (racemic) [Compound 2, (+/-) 6-Chloro-4-(2-cyanophenyl)ethynyl-4-(1,1,1-trifluoromethyl)-1,4-dihydro-2H-3,1-benzoxazin-2-one]: in data set [1] (setting [9]), the IC95 is 0.006 µM. The IC50 in data set [2] turned out to be 480 nM; in data set [3] (setting [10]) it was 25 nM.

`O=C1Nc2ccc(Cl)cc2[C@](C#Cc2ccccc2)(C(F)(F)F)O1` [3(+), (+) 6-Chloro-4-phenylethynyl-4-trifluoromethyl 1,4-dihydro-2H-3,1-benzoxazin-2-one]: the IC95 in data set [1] (setting [9]) is above 0.2 µM. For the same compound, the IC50 came to 37000 nM in data set [2] and 2900 nM in data set [3].

Consider `O=C1Nc2ccc(Cl)cc2[C@@](C#Cc2ccccc2)(C(F)(F)F)O1` [4(-), (-) 6-Chloro-4-phenylethynyl-4-trifluoromethyl-1,4-dihydro-2H-3,1-benzoxazin-2-one], for which, in data set [1] (read-out: CIC*95), the IC95 came to 0.012 µM. Further, the IC50 in data set [2] amounted to 69 nM; in data set [3], 8.6 nM.

Turning to `O=C1Nc2ccc(Cl)cc2[C@@](C#CC2CC2)(C(F)(F)F)O1` [37.2(-), (-) 6-Chloro-4-cyclopropylethynyl-4-trifluoromethyl-1,4-dihydro-2H-3,1-benzoxazin-2-one], the IC95 in data set [1] (WT virus, MT-4 cells, N = 2, read-out: CIC95 (μM) WT) is below 0.006 µM. The compound further registered an IC50 in data set [4] of 80800 nM. Also, the fraction unbound in data set [5] was 0.02. In addition, the “CIC95 (μM) Y181C” value in data set [6] is below 0.025 µM. Besides, the “CIC95 (μM) K103N” value in data set [7] worked out at 0.100 µM. The “CIC95 (μM) DM” value in data set [8] came out at 0.400 µM.

For `COc1ccccc1C#CC1(C(F)(F)F)OC(=O)Nc2ccc(Cl)cc21` (stereo not drawn) [Compound 11], the IC95 in data set [1] (setting [9]) came out at 0.006 µM. Further, the IC50 in data set [2] was 270 nM; in data set [3] (setting [10]) it was 16 nM.

Consider `COCC#CC1(C(F)(F)F)OC(=O)Nc2ccc(Cl)cc21` (stereo not drawn) [Compound 18], for which, in data set [1] (setting [9]), the IC95 was 0.05 µM. Moreover, the IC50 was 2650 nM in data set [2] and 15 nM in data set [3] (setting [10]).

`CN(C)CC#CC1(C(F)(F)F)OC(=O)Nc2ccc(Cl)cc21` (stereo not drawn) [Compound 24]: the IC95 in data set [1] (setting [9]) is 0.1 µM. The IC50 in data set [2] was 1950 nM; in data set [3] (setting [10]), 43 nM.

With `CCCC1(C2CC2)OC(=O)Nc2ccc(Cl)cc21` (stereo not drawn) [Compound 28], the IC95 in data set [1] (setting [9]) was 1.5 µM. The IC50 in data set [2] is 114000 nM; in data set [3] (setting [10]), 307 nM.

Consider `COCC#CC1(C2CC2)OC(=O)Nc2ccc(Cl)cc21` (stereo not drawn) [Compound 30], for which the IC50 is 3000 nM in data set [2] and 410 nM in data set [3] (setting [10]).

As to `CN(C)CC#CC1(C2CC2)OC(=O)Nc2ccc(Cl)cc21` (stereo not drawn) [Compound 31], the IC50 in data set [2] was 4250 nM; in data set [3] (setting [10]), 410 nM.

With `CCC1(CC)OC(=O)Nc2ccc(Cl)cc21` [Compound 34], the IC50 is above 300000 nM in data set [2] and 16500 nM in data set [3] (setting [10]).

Consider `C#CC1(c2ccccc2)OC(=O)Nc2ccc(Cl)cc21` (stereo not drawn) [Compound 35], for which the values for the IC50 in data set [2] and in data set [3] (setting [10]) were above 300000 nM and 650 nM, respectively.

On to `CCCC1(CC)OC(=O)Nc2ccc(Cl)cc21` (stereo not drawn) [Compound 36], for which the results for the IC50 in data set [2] and in data set [3] (setting [10]) were above 300000 nM and 52 nM, respectively.

`CCCC1(C(C)(C)C)OC(=O)Nc2ccc(Cl)cc21` (stereo not drawn) [Compound 37]: the results for the IC50 in data set [2] and in data set [3] (setting [10]) were above 100000 nM and 5300 nM, respectively.

`S=C1Nc2ccc(Cl)cc2C(C2CC2)(C2CC2)O1` [Compound 38]: the IC50 in data set [2] was above 300000 nM; in data set [3] (setting [11]), 136 nM.

On to `CCC1(C2CC2)OC(=S)Nc2ccc(Cl)cc21` (stereo not drawn) [Compound 39], for which the figures for the IC50 in data set [2] and in data set [3] (setting [11]) were above 300000 nM and 510 nM, respectively.

Consider `CCCC1(C2CC2)OC(=S)Nc2ccc(Cl)cc21` (stereo not drawn) [Compound 40], for which the figures for the IC50 in data set [2] and in data set [3] (setting [11]) were 29000 nM and 48 nM, respectively.

In the case of `CCCC1(C2CCCC2)OC(=S)Nc2ccc(Cl)cc21` (stereo not drawn) [Compound 41], the IC50 was above 300000 nM in data set [2] and 1400 nM in data set [3] (setting [11]).

On to `CCC1(c2ccccc2)OC(=S)Nc2ccc(Cl)cc21` (stereo not drawn) [Compound 44], for which, in data set [1] (Table II, concentration reducing spread of infection by at least 95%, MT-4 cells, read-out: CIC*95), the IC95 was determined as 0.1 µM. Moreover, the IC50 in data set [2] was above 300000 nM; in data set [3] (setting [11]) it was 15 nM.

On to `CCC1(CC)OC(=S)Nc2ccc(Cl)cc21` [Compound 45], for which the IC50 in data set [2] is above 300000 nM; in data set [3] (setting [11]), 560 nM.

`S=C1Nc2ccc(Cl)cc2C(c2ccccc2)(C2CC2)O1` (stereo not drawn) [Compound 46]: the IC50 in data set [2] is above 300000 nM; in data set [3] (setting [11]), 41 nM.

Broadly, the fraction unbound is free concentration divided by total concentration.
